Consider 16 molecules from patent EP4559919A1, “TRICYCLIC-CONTAINING MACROCYCLIC COMPOUND AND USE THEREOF” (Medshine Discovery Inc., priority 2022, dated 2024).

One test has as its target T1, ALK(G1202R) (Homo sapiens, UniProt Q9UM73, G1202R).
T1 construct: purchased Carna
In words: In vitro kinase inhibitory activity assay, Experimental method 1 (ADP-Glo). The test is classed as biochemical. The note with it: final ATP 50 µM, read-out: Kinase half maximal inhibitory concentration IC50 ALK^G1202R. As to the method: (§1) The kinase inhibitory activity assays of the compounds against ALK, ALK^L1196M, ALK^G1202R, ALK^G1202R/L1196M, ROS1, and TRKB were conducted at Wuhan Heyan Biotechnology Co., Ltd. or Hefei PreceDo Biotechnology Co., Ltd.
(§2) Experimental materials: ALK Active, ALK(L1196M) Active, ALK(G1202R) Active, and ALK(G1202R/L1196M) Active were purchased from Carna; SRC Substrate was purchased from SignalChem; IGF1R tide was purchased from SignalChem; ADP-Glo Kinase Assay was purchased from Promega; Kinase assay buffer III was purchased from SignalChem; and Nivo multimode plate reader (PerkinElmer).
(§3) Each concentration of the compounds was further diluted 20-fold using 1X kinase buffer to prepare compound working solutions containing 5% DMSO. 1 µL of each concentration gradient working solution was added to a microplate, with duplicate wells set for each concentration. 2 µL of ALK enzyme (15 ng per well) and 2 µL of a mixture of substrate and ATP (25 µM ATP, 0.5 µg/µL SRC Substrate) were added to the microplate. […] The reaction system was placed at 25°C for 1 hour. After the reaction, 5 µL of ADP-Glo reagent was added to each well and reacted at 25°C for another 40 minutes. After the reaction, 10 µL of kinase detection reagent was added to each well and reacted at 25°C for 30 minutes. Chemiluminescence was then measured using the PerkinElmer Nivo multimode plate reader with an integration time of 0.5 seconds.
ALK (G1202R) kinase inhibition assay method: The preparation method for the working solution of the test compound was the same as for the ALK kinase. […] The subsequent steps were the same as for ALK kinase.
(§4) The IC50 value could then be derived by performing a curve fit using a four-parameter logistic model (obtained using the "log(inhibitor) vs. response -- Variable slope" mode in GraphPad Prism).
Background: ADP-Glo turns the ADP formed in a reaction into a luminescent signal.

Test [1] concerns the target T2, ALK(G1202R/L1196M) (Homo sapiens, UniProt Q9UM73, G1202R/L1196M).
T2 construct: purchased Carna
The test is described as above. The test is classed as biochemical. The note with it: final ATP 50 µM, read-out: Kinase half maximal inhibitory concentration IC50 ALK^G1202R/L1196M. The procedure:
as §1, §2, §3
ALK (G1202R/L1196M) kinase inhibition assay method: The preparation method for the working solution of the test compound was the same as for the ALK kinase. […] The subsequent steps were the same as for ALK kinase.
as §4

The target of test [2] is T3, TRKB (Homo sapiens, UniProt Q16620).
T3 construct: purchased Carna
T3 sequence (Q16620 32-822): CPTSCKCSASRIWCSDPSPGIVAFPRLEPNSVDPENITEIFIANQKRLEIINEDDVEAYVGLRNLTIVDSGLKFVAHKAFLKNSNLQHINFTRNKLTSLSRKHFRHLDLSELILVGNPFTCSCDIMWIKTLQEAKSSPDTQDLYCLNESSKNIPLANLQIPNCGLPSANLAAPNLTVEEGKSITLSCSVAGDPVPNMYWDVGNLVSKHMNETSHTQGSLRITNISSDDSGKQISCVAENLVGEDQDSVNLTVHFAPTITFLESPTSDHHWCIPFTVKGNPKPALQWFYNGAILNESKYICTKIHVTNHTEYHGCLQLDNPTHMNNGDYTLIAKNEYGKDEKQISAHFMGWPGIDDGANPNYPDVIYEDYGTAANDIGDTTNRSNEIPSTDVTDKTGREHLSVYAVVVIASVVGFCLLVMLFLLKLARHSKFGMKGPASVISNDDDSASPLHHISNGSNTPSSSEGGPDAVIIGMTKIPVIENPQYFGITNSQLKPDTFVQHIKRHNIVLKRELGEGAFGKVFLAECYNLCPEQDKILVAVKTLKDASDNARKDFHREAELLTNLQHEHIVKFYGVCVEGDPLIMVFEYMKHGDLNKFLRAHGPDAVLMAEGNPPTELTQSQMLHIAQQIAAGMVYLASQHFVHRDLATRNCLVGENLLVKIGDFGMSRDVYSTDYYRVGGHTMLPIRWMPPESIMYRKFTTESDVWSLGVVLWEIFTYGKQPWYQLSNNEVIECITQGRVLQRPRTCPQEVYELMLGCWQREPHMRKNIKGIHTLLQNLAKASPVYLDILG
Described as above. The test is classed as biochemical. The note with it: read-out: Kinase half maximal inhibitory concentration IC50 TRKB. The procedure: as §1, §2, §3
TRKB kinase inhibition assay method: The preparation method for the working solution of the test compound was the same as for the ALK kinase. 2 µL of TRKB (0.5 ng per well) and 4 µL of a mixture of substrate and ATP (5 µM ATP, 0.5 µM SRC Substrate) were added to the microplate. […] The subsequent steps were the same as for ALK kinase.
as §4

In test [3] the target is T2, ALK(G1202R/L1196M). Nature of the test: In vitro kinase inhibitory activity assay, Experimental method 2 (ADP-Glo). In kind it is biochemical. As to the method:
as §1
(§5) Experimental materials: ALK (G1202R/L1196M) Active and TRKB were purchased from Carna; IGF1 was purchased from GenScript; PolyE4Y1 was purchased from SIGMA; ADP-Glo™ Reagent was purchased from Promega; ATP was purchased from Promega; Kinase Detection Reagent was purchased from Promega; microplate reader ( PerkinElmer).
Reaction system: ALK(G1202R/L1196M) reaction concentration 8.63 nM, ATP concentration 5.0 µM, substrate IGF1 concentration 0.2 µg/µL. ALK(G1202R/L1196M) kinase buffer was 40 mM Tris-HCl (pH 7.5) + 20 mM magnesium chloride + 0.1 mg/mL BSA + 50 µM DTT.
(§6) ALK(G1202R/L1196M) and TRKB detection method: 2 µL of kinase and 1 µL of compound were added to a 384-well plate; 2 µL of substrate/ATP mixture was added and incubated at room temperature in the dark for 60 minutes; 5 µL of ADP-Glo™ reagent was added and incubated at room temperature for 40 minutes; 10 µL of kinase detection reagent was added and incubated at room temperature for 30 minutes; the plate was read on a microplate reader, and luminescence was recorded (integration time set to 0.5 seconds).
as §4

The target of test [4] is T3, TRKB. The test is described as above. In kind it is biochemical. As to the method:
as §1, §5
TRKB reaction concentration 4.47 nM, ATP concentration 5.0 µM, substrate PolyE4Y1 concentration 0.2 µg/µL. TRKB kinase buffer was 40 mM Tris-HCl (pH 7.5) + 20 mM magnesium chloride + 2.5 mM manganese chloride + 0.1mg/mL BSA+ 50 µM DTT.
as §6, §4

In another test the test system is Ba/F3-TEL-TRKB. In words: Anti-proliferative activity test on Ba/F3 cell lines (CellTiter-Glo). The test is classed as cell-based. The note with it: Mus musculus, BaF3; 72 hours; read-out: Half maximal inhibitory concentration IC50 for cells Ba/F3-TEL-TRKB. As to the method: (§7) • (1) Cell culture: The cell lines were cultured in an incubator at 37°C with 5% CO2. Regular passaging was performed, and cells in the logarithmic growth phase were selected for plating; • (2) Preparation of compound storage plate: The test compounds were prepared into a 10 mM solution with DMSO (Stock Con.); The compounds were then prepared into a 1 mM solution with DMSO (Work Con.); 1 µL of the stock solution was mixed with 9 µL of DMSO to prepare a 10 µL work solution. • (3) Preparation of 1000× compound storage plate (tube): The compounds were 3-fold serially diluted from […] to the lowest concentration, for a total of 8 concentrations; • (4) Preparation of 20× compound working solution: 98 µL of cell culture medium was added to a flat-bottomed 96-well transparent drug plate. From the 1000× compound storage plate, 2 µL of the compound was pipetted into the cell culture medium in the 96-well transparent drug plate. In the solvent control, 2 µL of DMSO was added. After the compound or DMSO was added, the mixture was homogenized using a pipette. • (5) Cells were stained with trypan blue and viable cells were counted to ensure a cell viability of 90% or more. The cell concentration was adjusted to an appropriate concentration; • (6) 95 µL of cell suspension (2000 cells/well) was added to each well of the compound assay cell plate, and cell-free culture medium containing 0.1% DMSO was added to the Min control wells; • (7) Administration in the compound assay cell plate: 5 µL of 20× compound working solution was added to the cell culture plate, 5 µL of DMSO-cell culture medium mixture was added to the Max control wells, and the final concentration of DMSO was 0.1%; • (8) The culture plate was then incubated in an incubator at 37°C with 5% CO2 for 72 hours; • (9) The following operations were conducted in accordance with the instructions of the Promega CellTiter-Glo Luminescent Cell Viability Assay Kit (Promega-G7573): CellTiter-Glo buffer was thawed and brought to room temperature; CellTiter-Glo substrate was brought to room temperature; CellTiter-Glo buffer was added to a bottle of CellTiter-Glo substrate to dissolve the substrate, thereby preparing CellTiter-Glo working solution; The mixture was slowly vortexed and shaken to be fully dissolved; The cell culture plate was removed and allowed to equilibrate to room temperature for 10 minutes; 50 µL (equal to half the volume of cell culture medium in each well) of CellTiter-Glo working solution was added to each well; The culture plate was shaken on an orbital shaker for 2 minutes to induce cell lysis; The plate was then left at room temperature for 10 minutes to stabilize the luminescent signal; The luminescent signal was detected using a SpectraMax Paradigm plate reader; Cell viability assay was conducted using CellTiter-Glo luminescence method.
(§8) Data analysis: The corresponding […] value (RLU) for each well was obtained from SpectraMax Paradigm readings. […] The inhibition rates corresponding to compounds at different concentrations were calculated in Excel, and the inhibition rate curves were plotted using GraphPad Prism software to calculate relevant parameters, including the maximum and minimum inhibition rates of the cells and the IC50 value.
In general terms: In ATP-based viability assays light output follows the ATP content of the culture.

The test system of test [5] is Ba/F3-EML4-ALK-G1202R/L1196M. Described as above. In kind it is cell-based. Particulars: Ba/F3 EML4-ALK-G1202R-L1196M; 72 hours; read-out: Half maximal inhibitory concentration IC50 for cells Ba/F3-EML4-ALK-G1202R/L1196 M. The procedure:
as §7, §8

The mark [6] stands for this setting: Experimental method 2, ATP 5.0 µM, substrate IGF1, read-out: Kinase half maximal inhibitory concentration IC50 ALK^G1202R/L1196M.
Where [7] appears, read: Experimental method 2, ATP 5.0 µM, substrate PolyE4Y1, read-out: Kinase half maximal inhibitory concentration IC50 TRKB.

Structures are written as SMILES.

T2 sequence (Q9UM73 19-1620 L1196M/G1202R): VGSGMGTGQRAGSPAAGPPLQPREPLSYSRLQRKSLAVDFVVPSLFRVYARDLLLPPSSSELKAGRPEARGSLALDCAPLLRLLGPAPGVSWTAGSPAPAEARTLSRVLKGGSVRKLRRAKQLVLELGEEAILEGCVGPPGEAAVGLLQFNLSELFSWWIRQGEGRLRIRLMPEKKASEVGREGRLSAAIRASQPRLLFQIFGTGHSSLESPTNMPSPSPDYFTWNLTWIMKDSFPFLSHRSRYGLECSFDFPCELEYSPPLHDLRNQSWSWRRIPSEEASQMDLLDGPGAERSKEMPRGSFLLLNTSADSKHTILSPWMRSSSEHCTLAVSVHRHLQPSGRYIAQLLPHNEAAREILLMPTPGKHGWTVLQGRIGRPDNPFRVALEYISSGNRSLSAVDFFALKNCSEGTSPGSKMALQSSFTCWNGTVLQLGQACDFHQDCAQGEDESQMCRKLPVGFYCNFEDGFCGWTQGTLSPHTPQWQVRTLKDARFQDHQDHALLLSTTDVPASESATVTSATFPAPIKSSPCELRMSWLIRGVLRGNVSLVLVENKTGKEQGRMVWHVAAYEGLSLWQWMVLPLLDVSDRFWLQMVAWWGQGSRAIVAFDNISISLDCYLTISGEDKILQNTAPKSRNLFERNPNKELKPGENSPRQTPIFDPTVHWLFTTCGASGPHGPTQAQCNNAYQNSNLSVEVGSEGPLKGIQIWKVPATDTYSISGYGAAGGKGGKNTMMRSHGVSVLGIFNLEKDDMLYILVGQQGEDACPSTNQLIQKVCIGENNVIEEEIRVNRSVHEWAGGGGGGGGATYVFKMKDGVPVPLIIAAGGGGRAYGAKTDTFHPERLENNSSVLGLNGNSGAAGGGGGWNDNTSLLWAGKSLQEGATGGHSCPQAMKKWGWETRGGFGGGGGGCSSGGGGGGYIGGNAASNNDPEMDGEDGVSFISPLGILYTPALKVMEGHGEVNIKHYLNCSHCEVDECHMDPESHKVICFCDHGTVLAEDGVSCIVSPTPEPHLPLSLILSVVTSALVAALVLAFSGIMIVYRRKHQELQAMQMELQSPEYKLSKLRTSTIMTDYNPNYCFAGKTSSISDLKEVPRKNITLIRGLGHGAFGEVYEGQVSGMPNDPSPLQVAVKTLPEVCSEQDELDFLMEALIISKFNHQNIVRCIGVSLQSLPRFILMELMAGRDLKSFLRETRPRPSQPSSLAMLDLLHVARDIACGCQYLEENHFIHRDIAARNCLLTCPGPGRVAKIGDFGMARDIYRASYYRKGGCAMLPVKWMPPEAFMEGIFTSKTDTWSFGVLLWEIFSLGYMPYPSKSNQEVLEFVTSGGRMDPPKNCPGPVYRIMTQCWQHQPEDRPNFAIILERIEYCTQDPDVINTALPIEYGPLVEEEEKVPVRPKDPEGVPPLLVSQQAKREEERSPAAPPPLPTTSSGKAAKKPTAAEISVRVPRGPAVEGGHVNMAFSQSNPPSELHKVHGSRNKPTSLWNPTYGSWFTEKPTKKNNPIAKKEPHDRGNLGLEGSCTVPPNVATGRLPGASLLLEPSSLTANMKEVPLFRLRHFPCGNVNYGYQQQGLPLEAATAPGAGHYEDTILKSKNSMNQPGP
T1 sequence (Q9UM73 19-1620 G1202R): as the sequence (Q9UM73 19-1620 L1196M/G1202R) above, with M1178L counted along it

In the case of `CCON=C1NC(C)(C)COc2ccc(F)cc2CN2c3nc4c1cnn4cc3OC[C@H]2C(F)F` [Compound 002], the IC50 came out at 27.8 nM on ALK(G1202R) and 14.6 nM on ALK(G1202R/L1196M) [1].
In the same order, the values of `COCCON=C1NC(C)(C)COc2ccc(F)cc2CN2c3nc4c1cnn4cc3OC[C@H]2C(F)F` [Compound 003] are 12.2 nM and 11.3 nM.
`CC1(C)COc2ncc(F)cc2CN2c3nc4c(cnn4cc3OC[C@H]2C(F)F)C(=S)N1` [Compound 004]: the IC50 on TRKB [2] was 2.4 nM; at ALK(G1202R/L1196M) [1], 1.3 nM.
With `Cc1nn2cc3c4nc2c1C(=O)NC(C)(C)COc1ccc(F)cc1CN4[C@H](C(F)F)CO3` [Compound 006], the IC50 stood at 0.6 nM on ALK(G1202R/L1196M) [3] (setting [6]) and 1.2 nM at TRKB [4] (setting [7]).
On to `CC1(C)COc2ccc(F)cc2CN2c3nc4c(cc3OC[C@H]2C(F)F)ncn4C(=O)N1` [Compound 007], for which the values for the IC50 against ALK(G1202R/L1196M) [3] and at TRKB [4] were 1 nM and 2.6 nM, respectively.
Turning to `CC1(C)COc2ccc(F)cc2CN2c3nc4c(cc3OC[C@H]2C(F)F)ncn4C(=S)N1` [Compound 008], the IC50 on ALK(G1202R/L1196M) [3] (setting [6]) came out at 1.7 nM; at TRKB [4] (setting [7]) it was 7.8 nM.
Consider `CC1(C)COc2ccc(F)cc2CN2c3nc4c(c(Br)nn4cc3OC[C@H]2C(F)F)C(=O)N1` [Compound 009], for which the IC50 amounted to 0.8 nM at ALK(G1202R/L1196M) [3] (setting [6]), 7.8 nM in the test on Ba/F3-TEL-TRKB, 7.3 nM in test [5] and 2 nM at TRKB [4] (setting [7]).
Regarding `CC1(C)COc2ccc(F)cc2CN2c3nc4c(c(C#N)nn4cc3OC[C@H]2C(F)F)C(=O)N1` [Compound 010], the IC50 at ALK(G1202R/L1196M) [3] (setting [6]) is 1.5 nM; on TRKB [4] (setting [7]), 4.4 nM.
In the same order, the values of `CON=C1NCC2(CC2)COc2ccc(F)cc2CN2c3nc4c1cnn4cc3OC[C@H]2C(F)F` [Compound 011] are 1.7 nM and 3.4 nM.
Consider `Cc1nc2cc3c4nc2n1C(=O)NC(C)(C)COc1ccc(F)cc1CN4[C@H](C(F)F)CO3` [Compound 012], for which the IC50 turned out to be 1.5 nM at ALK(G1202R/L1196M) [3], 5.2 nM in the test on Ba/F3-TEL-TRKB, 7 nM in test [5] and 2.9 nM at TRKB [4].
Consider `O=C1NC2(CC2)COc2ccc(F)cc2CN2c3nc4c(cc3OC[C@H]2C(F)F)ncn41` [Compound 014], for which the IC50 worked out at 0.4 nM on ALK(G1202R/L1196M) [3] (setting [6]), 0.2 nM in the test on Ba/F3-TEL-TRKB, 5.3 nM in test [5] and 0.7 nM on TRKB [4] (setting [7]).
With `Cc1nn2cc3c4nc2c1C(=O)NC(C)(C)COc1ncc(F)cc1CN4[C@H](C(F)F)CO3` [Compound 015], the values for the IC50 on ALK(G1202R/L1196M) [3] (setting [6]) and at TRKB [4] (setting [7]) were 0.6 nM and 1.1 nM, respectively.
As for `CC1(C)COc2ccc(F)cc2CN2c3nc4c(c(C5CC5)nn4cc3OC[C@H]2C(F)F)C(=O)N1` [Compound 017], the IC50 on ALK(G1202R/L1196M) [3] (setting [6]) stood at 15.3 nM; on TRKB [4] (setting [7]), 31.3 nM.
As for `CC1(C)COc2ccc(F)cc2CN2c3nc4c(c(C#CC5CC5)nn4cc3OC[C@H]2C(F)F)C(=O)N1` [Compound 020], the IC50 at ALK(G1202R/L1196M) [3] (setting [6]) was 1.1 nM; at TRKB [4] (setting [7]), 10 nM.
`O=C1NC2(CCC2)COc2ccc(F)cc2CN2c3nc4c1c(Br)nn4cc3OC[C@H]2C(F)F` [Compound 021]: the IC50 at ALK(G1202R/L1196M) [3] (setting [6]) came out at 4 nM; on TRKB [4] (setting [7]), 7 nM.
On to `O=C1N[C@H]2C[C@H](C2)Oc2ccc(F)cc2CN2c3nc4c1c(Br)nn4cc3OC[C@H]2C(F)F` [Compound 023], for which the IC50 on ALK(G1202R/L1196M) [3] (setting [6]) is 1.2 nM; with Ba/F3-TEL-TRKB it was 1.8 nM; in test [5], 10.8 nM; at TRKB [4] (setting [7]), 1.5 nM.
